Test results published in US12077503B2, “Substituted cyclic amides and their use as herbicides” (FMC CORPORATION, priority 2015, dated 2024).

How the values were obtained:
Format in all cases: in vivo
Kochia (Kochia scoparia) [1] = assay: Test A preemergence; settings: Bassia scoparia, pre-emergence, 240 h
In short: (§1)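 Seeded soil received test chemicals as a preemergence directed spray, and seedlings at one to two leaves, 2–10 cm tall, received them postemergence, in a non-phytotoxic, surfactant-containing solvent mixture. Pots were held in a greenhouse for approximately 10 d, then rated for injury from 0, no effect, to 100, complete control.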

[2] = tested on: barnyardgrass (Echinochloa crus-galli); assay: Test A preemergence; settings: Echinochloa crus-galli, pre-emergence, 240 h
In short: as §1

[3] = tested on: giant foxtail (Setaria faberii); assay: Test A preemergence; settings: Setaria faberi, pre-emergence, 240 h
In short: as §1

[4] = tested on: pigweed (Amaranthus retroflexus); assay: Test A preemergence; settings: Amaranthus retroflexus, pre-emergence, 240 h
[5] = tested on: ragweed (common ragweed, Ambrosia elatior); assay: Test A preemergence; settings: Ambrosia artemisiifolia, pre-emergence, 240 h
In short: as §1

[6] = tested on: ryegrass, Italian (Italian ryegrass, Lolium multiflorum); assay: Test A preemergence; settings: Lolium multiflorum, pre-emergence, 240 h
In short: as §1

[7] = tested on: Galium (catchweed bedstraw, Galium aparine); assay: Test A postemergence; settings: Galium, post-emergence, 240 h, 125 g ai/ha, Postemergence; visual injury after approximately 10 d; 0 to 100 scale where 0 is no effect and 100 is complete control; read-out: Plant response rating, Galium
In short: as §1

Kochia (Kochia scoparia) [8] = assay: Test A postemergence; settings: Bassia scoparia, post-emergence, 240 h, 125 g ai/ha, Postemergence; visual injury after approximately 10 d; 0 to 100 scale where 0 is no effect and 100 is complete control; read-out: Plant response rating, Kochia
In short: as §1

[9] = tested on: barnyardgrass (Echinochloa crus-galli); assay: Test A postemergence; settings: Echinochloa crus-galli, post-emergence, 240 h, 125 g ai/ha, Postemergence; visual injury after approximately 10 d; 0 to 100 scale where 0 is no effect and 100 is complete control; read-out: Plant response rating, Barnyardgrass
In short: as §1

[10] = tested on: blackgrass (Alopecurus myosuroides); assay: Test A postemergence; settings: Alopecurus myosuroides, post-emergence, 240 h, 125 g ai/ha, Postemergence; visual injury after approximately 10 d; 0 to 100 scale where 0 is no effect and 100 is complete control; read-out: Plant response rating, Blackgrass
In short: as §1

corn (Zea mays) = assay: Test A postemergence; settings: Zea mays, post-emergence, 240 h, 125 g ai/ha, Postemergence; visual injury after approximately 10 d; 0 to 100 scale where 0 is no effect and 100 is complete control
In short: as §1

[11] = tested on: giant foxtail (Setaria faberii); assay: Test A postemergence; settings: Setaria faberi, post-emergence, 240 h, 125 g ai/ha, Postemergence; visual injury after approximately 10 d; 0 to 100 scale where 0 is no effect and 100 is complete control; read-out: Plant response rating, Foxtail, Giant
In short: as §1

[12] = tested on: pigweed (Amaranthus retroflexus); assay: Test A postemergence; settings: Amaranthus retroflexus, post-emergence, 240 h, 125 g ai/ha, Postemergence; visual injury after approximately 10 d; 0 to 100 scale where 0 is no effect and 100 is complete control; read-out: Plant response rating, Pigweed
In short: as §1

[13] = tested on: ragweed (common ragweed, Ambrosia elatior); assay: Test A postemergence; settings: Ambrosia artemisiifolia, post-emergence, 240 h, 125 g ai/ha, Postemergence; visual injury after approximately 10 d; 0 to 100 scale where 0 is no effect and 100 is complete control; read-out: Plant response rating, Ragweed
In short: as §1

[14] = tested on: ryegrass, Italian (Italian ryegrass, Lolium multiflorum); assay: Test A postemergence; settings: Lolium multiflorum, post-emergence, 240 h, 125 g ai/ha, Postemergence; visual injury after approximately 10 d; 0 to 100 scale where 0 is no effect and 100 is complete control; read-out: Plant response rating, Ryegrass, Italian
In short: as §1

[15] = tested on: wheat (Triticum aestivum); assay: Test A postemergence; settings: Triticum aestivum, post-emergence, 240 h, 125 g ai/ha, Postemergence; visual injury after approximately 10 d; 0 to 100 scale where 0 is no effect and 100 is complete control; read-out: Plant response rating, Wheat
In short: as §1

[16] = tested on: barnyardgrass (Echinochloa crus-galli); assay: Test B flooded paddy test; settings: Echinochloa crus-galli, Flood, 250 g ai/ha; scale of 0 to 100 where 0 is no effect and 100 is complete control; read-out: Barnyardgrass plant response rating
In short: (§2)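 Evaluation by eye, against controls, occurred 13–15 d post-treatment in a greenhouse, using a 0 (no effect) to 100 (complete control) scale. Application was into the paddy water, 3 cm deep over the soil, on 2-leaf plants.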

[17] = tested on: ducksalad (Heteranthera limosa); assay: Test B flooded paddy test; settings: Heteranthera limosa, Flood, 250 g ai/ha; scale of 0 to 100 where 0 is no effect and 100 is complete control; read-out: Ducksalad plant response rating
In short: as §2

rice (Oryra sativa) = assay: Test B flooded paddy test; settings: Oryza sativa, Flood, 250 g ai/ha; scale of 0 to 100 where 0 is no effect and 100 is complete control; read-out: Rice plant response rating
In short: as §2

[18] = tested on: sedge, umbrella (small-flower umbrella sedge, Cyperus difformis); assay: Test B flooded paddy test; settings: Cyperus difformis, Flood, 250 g ai/ha; scale of 0 to 100 where 0 is no effect and 100 is complete control; read-out: Sedge, Umbrella plant response rating
In short: as §2

`Cc1ccc(NC(=O)[C@H]2C(=O)N(C)C[C@@H]2c2cc(F)cc(F)c2)cc1` [Compound 967] was tested. Which pest or weed control at 125 g/ha (Kochia (Kochia scoparia) [1]; 125 g ai/ha, Preemergence, visual injury rating after approximately 10 d, read-out: Kochia plant response rating (0 to 100 scale, 0 is no effect, 100 is complete control)) did it give?
The pest or weed control at 125 g/ha was 0%.

What about the pest or weed control at 500 g/ha (Kochia (Kochia scoparia) [1]; 500 g ai/ha, preemergence, visual injury rating about 10 d after treatment, 0 to 100 scale (0 no effect, 100 complete control), read-out: Kochia plant response rating) of the same compound?
The pest or weed control at 500 g/ha was 0%.

What about the pest or weed control at 125 g/ha ([2]; 125 g ai/ha, Preemergence, visual injury rating after approximately 10 d, read-out: Barnyardgrass plant response rating (0 to 100 scale, 0 is no effect, 100 is complete control)) of the same compound?
The pest or weed control at 125 g/ha was 80%.

And the pest or weed control at 500 g/ha ([2]; 500 g ai/ha, preemergence, visual injury rating about 10 d after treatment, 0 to 100 scale (0 no effect, 100 complete control), read-out: Barnyardgrass plant response rating)?
The pest or weed control at 500 g/ha was 90%.

And the pest or weed control at 125 g/ha ([3]; 125 g ai/ha, Preemergence, visual injury rating after approximately 10 d, read-out: Foxtail, Giant plant response rating (0 to 100 scale, 0 is no effect, 100 is complete control))?
Its pest or weed control at 125 g/ha is 80%.

What about the pest or weed control at 500 g/ha ([3]; 500 g ai/ha, preemergence, visual injury rating about 10 d after treatment, 0 to 100 scale (0 no effect, 100 complete control), read-out: Foxtail, Giant plant response rating) of the same compound?
Its pest or weed control at 500 g/ha is 90%.

And the pest or weed control at 125 g/ha ([4]; 125 g ai/ha, Preemergence, visual injury rating after approximately 10 d, read-out: Pigweed plant response rating (0 to 100 scale, 0 is no effect, 100 is complete control))?
The pest or weed control at 125 g/ha was 0%.

What about the pest or weed control at 500 g/ha ([4]; 500 g ai/ha, preemergence, visual injury rating about 10 d after treatment, 0 to 100 scale (0 no effect, 100 complete control), read-out: Pigweed plant response rating) of the same compound?
Its pest or weed control at 500 g/ha is 0%.

What about the pest or weed control at 125 g/ha ([5]; 125 g ai/ha, Preemergence, visual injury rating after approximately 10 d, read-out: Ragweed plant response rating (0 to 100 scale, 0 is no effect, 100 is complete control)) of the same compound?
Its pest or weed control at 125 g/ha is 0%.

What about the pest or weed control at 500 g/ha ([5]; 500 g ai/ha, preemergence, visual injury rating about 10 d after treatment, 0 to 100 scale (0 no effect, 100 complete control), read-out: Ragweed plant response rating) of the same compound?
The pest or weed control at 500 g/ha was 0%.

And the pest or weed control at 125 g/ha ([6]; 125 g ai/ha, Preemergence, visual injury rating after approximately 10 d, read-out: Ryegrass, Italian plant response rating (0 to 100 scale, 0 is no effect, 100 is complete control))?
Its pest or weed control at 125 g/ha is 0%.

What about the pest or weed control at 500 g/ha ([6]; 500 g ai/ha, preemergence, visual injury rating about 10 d after treatment, 0 to 100 scale (0 no effect, 100 complete control), read-out: Ryegrass, Italian plant response rating) of the same compound?
The pest or weed control at 500 g/ha was 0%.

What about the pest or weed control at 125 g/ha [7] of the same compound?
The pest or weed control at 125 g/ha was 0%.

And the pest or weed control at 125 g/ha (Kochia (Kochia scoparia) [8])?
Its pest or weed control at 125 g/ha is 0%.

What about the pest or weed control at 125 g/ha [9] of the same compound?
Its pest or weed control at 125 g/ha is 80%.

And the pest or weed control at 125 g/ha [10]?
Its pest or weed control at 125 g/ha is 0%.

And the Corn plant response rating (crop injury, 0 = no effect, 100 = complete kill) at 125 g/ha (corn (Zea mays))?
Its Corn plant response rating (crop injury, 0 = no effect, 100 = complete kill) at 125 g/ha is 0%.

And the pest or weed control at 125 g/ha [11]?
The pest or weed control at 125 g/ha was 80%.

What about the pest or weed control at 125 g/ha [12] of the same compound?
Its pest or weed control at 125 g/ha is 0%.

And the pest or weed control at 125 g/ha [13]?
Its pest or weed control at 125 g/ha is 0%.

And the pest or weed control at 125 g/ha [14]?
Its pest or weed control at 125 g/ha is 0%.

What about the plant injury at 125 g/ha [15] of the same compound?
Its plant injury at 125 g/ha is 0%.

And the pest or weed control at 250 g/ha [16]?
Its pest or weed control at 250 g/ha is 0%.

And the pest or weed control at 250 g/ha [17]?
Its pest or weed control at 250 g/ha is 35%.

What about the pest or weed control at 250 g/ha (rice (Oryra sativa)) of the same compound?
The pest or weed control at 250 g/ha was 0%.

And the pest or weed control at 250 g/ha [18]?
Its pest or weed control at 250 g/ha is 0%.
